Experimental data: US9598396B2, “Tetrahydrophenanthridinones and tetrahydrocyclopentaquinolinones as PARP and tubulin polymerization inhibitors” (Janssen Pharmaceutica NV, priority 2008, dated 2017)

Tests used:
Human PARP-1 enzyme = Human PARP-1 enzyme (Homo sapiens (Human), UniProt P09874); experiment: In vitro Scintillation Proximity Assay (SPA) for PARP-1 inhibitory activity; assay type: biochemical; conditions: nicked DNA activated PARP-1, [3H]-NAD+, biotinylated histones
Experimental: C.1.In Vitro Scintillation Proximity Assay (SPA) for PARP-1 Inhibitory Activity
Compounds of the present invention were tested in an in vitro assay based on SPA technology (proprietary to GE healthcare).
In principle, the assay relies upon the well established SPA technology for the detection of poly(ADP-ribosyl)ation of biotinylated target proteins, i.e histones. This ribosylation is induced using nicked DNA activated PARP-1 enzyme and [^3H]-nicotinamide adenine dinucleotide ([^3H]-NAD^+) as ADP-ribosyl donor.
Histones (type II-A, supplier: Sigma) were biotinylated using the biotinylation kit of Amersham and stored aliquoted at −20° C. A stock solution of 100 mg/ml SPA poly(vinyl toluene) (PVT) beads (supplier: Amersham) was made in PBS. A stock solution of 61.6 nM […] was made by adding [^3H]-NAD^+ (0.1 mCi/ml, supplier: Perkin Elmer) to incubation buffer (50 mM Tris/HCl, pH 8; 0.2 mM DTT; 4 mM MgCl2). A solution of 4 mM NAD^+ (supplier: Sigma) was made. Human PARP-1 enzyme was obtained from Trevigen. Biotinylated histones and PVT-SPA beads were mixed and pre-incubated for 30 minutes at room temperature. PARP-1 enzyme (concentration was lot dependent) was mixed with the nicked DNA and the mixture was pre-incubated for 30 minutes at 4° C. Equal parts of this histones/PVT-SPA beads solution and PARP-1 enzyme/DNA solution were mixed and 75 μl of this mixture together with 1 μl of compound in DMSO and 25 μl of [^3H]-NAD^+was added per well into a 96-well microtiterplate. The final concentrations in the incubation mixture were 2 μg/ml for the biotinylated histones, 2 mg/ml for the PVT-SPA beads, 0.25 μg/ml for the nicked DNA and between 0.1-0.2 μg/ml for the PARP-1 enzyme. After incubation of the mixture for 20 minutes at room temperature, the reaction was terminated by adding 100 μl of 4 mM NAD^+ in water (final concentration 2 mM) and plates were mixed. The beads were sedimented by centrifugation (10 min, 800 rpm) and plates transferred to a TopCountNXT™ (Packard) for scintillation counting, values were expressed as counts per minute (cpm). For each experiment, controls (containing PARP-1 enzyme and DMSO without compound), a blank incubation (containing DMSO but no PARP-1 enzyme, no DNA or compound) and samples (containing PARP-1 enzyme, DNA and compound dissolved in DMSO) were run in parallel. All compounds tested were dissolved and eventually further diluted in DMSO. A dose-response curve was made wherein the compounds were tested at concentrations between 10^−5M and 3×10^−9M. In each test, the blank value was subtracted from both the control and the sample values. The control sample represented maximal PARP-1 enzyme activity. For each sample, the amount of cpm was expressed as a percentage of the mean cpm value of the controls. […] Herein the effects of test compounds are expressed as pIC50 (the negative log value of the IC50-value). As a reference compound, 4-amino-1,8-naphthalimide was included to validate the SPA assay.

[1] = system: human prostate cancer PC3 cells; experiment: Eb1 Comet (microtubule disruption) assay; assay type: cell-based; conditions: 1 hour treatment, LAC = concentration where Eb1 foci absent in at least 50% of treated cells
From the text: Example C.6 Eb1 Comet (Microtubule Disruption) Assay
The Eb1 Comet assay relies on the detection of the Eb1 protein at the plus end of polymerizing microtubules (Mimori-Kiyosue, 2000) using indirect immunofluorescence. Disruption of microtubule dynamics through de-polymerization or stabilization results in a de-localization of Eb1 from the growing microtubule ends and this is visualized by the disappearance of Eb1 containing cytoplasmic foci.
Briefly, human prostate cancer PC3 cells obtained from the American Type Culture Collection were grown in 96-well plates (Greiner, cat. no. 655090) in HAM's F12 medium as recommended by the provider (ATCC). The cells were treated for 1 hour at 37° C. with compounds dissolved in DMSO (0.6% final DMSO concentration). The culture medium was then removed by aspiration and the cells were fixed by adding cold methanol (−20 C). After a 15 minutes incubation at −20° C., the cells were washed twice with DPBS (Gibco) containing 0.5% Triton X-100. Mouse Eb1 antibody (BD Transduction Laboratories, cat. no. 610534) was added to the cells (1/250 dilution in DPBS containing 1% BSA) and incubated overnight at room temperature. The antibody was subsequently removed and the cells washed twice with DPBS, 0.5% Triton X-100. Secondary goat anti-mouse antibody conjugated to Alexa 488 fluorescent dye (Molecular Probes) was added at a 1/500 dilution in DPBS, 1% BSA and incubated for 1 hour at 37° C. The cells were washed twice with DPBS, 0.5% Triton X-100 and then DPBS containing 0.5% Triton X-100 and 1/5000 Hoechst 33342 (Molecular Probes) was added. Microscopy based Eb1 foci visualization was carried out using an IN Cell Analyser 1000 (Amersham Biosciences) using a 20× objective. Compound dependent microtubule disruption was visually determined by the disappearance in Eb1 foci. The lowest active concentration (LAC) was determined as the concentration where Eb1 foci were absent in at least 50% of the treated cells. Herein the effects of tested compounds are expressed as pLAC (the negative log value of the LAC value) (see Table 3).

Human PARP-1 enzyme, sequence (P09874 whole entry): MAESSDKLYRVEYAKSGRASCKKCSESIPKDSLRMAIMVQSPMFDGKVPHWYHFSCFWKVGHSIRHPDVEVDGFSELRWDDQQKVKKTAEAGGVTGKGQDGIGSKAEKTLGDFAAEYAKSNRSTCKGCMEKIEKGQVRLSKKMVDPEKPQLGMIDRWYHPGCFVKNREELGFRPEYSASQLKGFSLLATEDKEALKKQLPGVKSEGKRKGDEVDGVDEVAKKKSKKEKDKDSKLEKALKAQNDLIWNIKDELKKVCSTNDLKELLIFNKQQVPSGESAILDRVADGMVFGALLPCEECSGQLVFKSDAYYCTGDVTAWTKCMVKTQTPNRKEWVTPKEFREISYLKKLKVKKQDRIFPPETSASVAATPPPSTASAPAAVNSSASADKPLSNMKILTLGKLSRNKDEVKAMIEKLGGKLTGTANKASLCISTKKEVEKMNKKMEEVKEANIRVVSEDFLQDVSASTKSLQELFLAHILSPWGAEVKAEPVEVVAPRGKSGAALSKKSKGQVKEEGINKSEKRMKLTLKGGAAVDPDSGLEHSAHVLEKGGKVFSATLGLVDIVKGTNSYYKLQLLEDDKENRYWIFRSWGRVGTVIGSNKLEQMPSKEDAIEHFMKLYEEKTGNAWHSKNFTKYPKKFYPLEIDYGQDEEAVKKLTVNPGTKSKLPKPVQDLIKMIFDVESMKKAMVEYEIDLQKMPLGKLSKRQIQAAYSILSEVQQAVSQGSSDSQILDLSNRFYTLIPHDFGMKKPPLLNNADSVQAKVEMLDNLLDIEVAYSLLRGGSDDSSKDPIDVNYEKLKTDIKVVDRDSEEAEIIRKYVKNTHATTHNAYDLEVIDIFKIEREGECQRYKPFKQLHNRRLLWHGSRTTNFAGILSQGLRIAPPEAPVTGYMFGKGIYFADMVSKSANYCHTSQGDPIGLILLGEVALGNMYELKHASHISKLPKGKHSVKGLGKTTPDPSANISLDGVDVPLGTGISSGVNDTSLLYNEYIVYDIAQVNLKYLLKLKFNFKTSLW

Compound: CC(C#N)(Cc1cccc(Cl)c1)c1ccc2c3c(c(=O)[nH]c2c1)CCCC3 (centres unmarked) [Co. No. 8]
- in vitro SPA assay PARP-1 pIC50 (Human PARP-1 enzyme): 7.08

Compound: CC(C#N)(CCOc1ccc(C#N)cc1)c1ccc2c3c(c(=O)[nH]c2c1)CCCC3 (centres unmarked) [Co. No. 17]
- in vitro SPA assay PARP-1 pIC50 (Human PARP-1 enzyme): 7.35

Compound: CC(C#N)(Cc1cccc(F)c1)c1ccc2c3c(c(=O)[nH]c2c1)CCCC3 (centres unmarked) [Co. No. 5]
- in vitro SPA assay PARP-1 pIC50 (Human PARP-1 enzyme): 9.01
- Cellular assay Eb1 pLAC [1]: 7

Compound: CC(C#N)(Cc1cccc(C#N)n1)c1ccc2c3c(c(=O)[nH]c2c1)CCCC3 (centres unmarked) [Co. No. 7]
- in vitro SPA assay PARP-1 pIC50 (Human PARP-1 enzyme): 8.38
- Cellular assay Eb1 pLAC [1]: 7.5

Compound: CC(C#N)(Cc1ccccc1)c1ccc2c3c(c(=O)[nH]c2c1)CCCC3 (centres unmarked) [Co. No. 1]
- in vitro SPA assay PARP-1 pIC50 (Human PARP-1 enzyme): 7.44

Compound: CC(C#N)(Cc1cccc(C#N)c1)c1ccc2c3c(c(=O)[nH]c2c1)CCCC3 (centres unmarked) [Co. No. 4]
- in vitro SPA assay PARP-1 pIC50 (Human PARP-1 enzyme): 9.03
